Experimental data taken from paper PMC6946680, “Modulation of brain cation-Cl^− cotransport via the SPAK kinase inhibitor ZT-1a” (Nature Communications, 2020).

What was measured:
Assay in all cases: Kinase profiling panel
Format in all cases: biochemical
[1] = test system: CDK9-Cyclin T1
Protocol: (§1) Supplementary Table 2. ZT-1a kinase profiling data6.
(§2) ZT-1a was tested at 10 and 1 µM against a panel of 140 recombinant kinases in an enzymatic
(§3) activity-based assay performed by the International Centre for Kinase Profiling in the MRC
(§4) Protein Phosphorylation and Ubiquitylation Unit. Values represent % residual kinase activity

[2] = test system: MAP4K3
Protocol: as §1, §2, §3, §4

[3] = test system: EPH-B4
Protocol: as §1, §2, §3, §4

[4] = test system: TTBK1
Protocol: as §1, §2, §3, §4

[5] = test system: TTBK2
Protocol: as §1, §2, §3, §4

[6] = test system: IRAK1
Protocol: as §1, §2, §3, §4

[7] = test system: CHK1
Protocol: as §1, §2, §3, §4

[8] = test system: EF2K
Protocol: as §1, §2, §3, §4

[9] = test system: DYRK2
Protocol: as §1, §2, §3, §4

[10] = test system: MNK1
Protocol: as §1, §2, §3, §4

[11] = test system: MSK1
Protocol: as §1, §2, §3, §4

[12] = test system: HIPK1
Protocol: as §1, §2, §3, §4

[13] = test system: MINK1
Protocol: as §1, §2, §3, §4

[14] = test system: SGK1
Protocol: as §1, §2, §3, §4

[15] = test system: WNK1
Protocol: as §1, §2, §3, §4

[16] = test system: FGF-R1
Protocol: as §1, §2, §3, §4

[17] = test system: PINK
Protocol: as §1, §2, §3, §4

[18] = test system: PIM2
Protocol: as §1, §2, §3, §4

[19] = test system: TGFBR1
Protocol: as §1, §2, §3, §4

[20] = test system: IRAK4
Protocol: as §1, §2, §3, §4

[21] = test system: MKK2
Protocol: as §1, §2, §3, §4

[22] = test system: MAPKAP-K2
Protocol: as §1, §2, §3, §4

[23] = test system: VEG-FR
Protocol: as §1, §2, §3, §4

[24] = test system: NEK6
Protocol: as §1, §2, §3, §4

[25] = test system: IKKe
Protocol: as §1, §2, §3, §4

[26] = test system: PAK5
Protocol: as §1, §2, §3, §4

[27] = test system: JAK2
Protocol: as §1, §2, §3, §4

[28] = test system: MAPKAP-K3
Protocol: as §1, §2, §3, §4

[29] = test system: PKBa
Protocol: as §1, §2, §3, §4

[30] = test system: IGF-1R
Protocol: as §1, §2, §3, §4

[31] = test system: MPSK1
Protocol: as §1, §2, §3, §4

[32] = test system: GCK
Protocol: as §1, §2, §3, §4

[33] = test system: RSK2
Protocol: as §1, §2, §3, §4

[34] = test system: CAMKKb
Protocol: as §1, §2, §3, §4

[35] = test system: EIF2AK3
Protocol: as §1, §2, §3, §4

[36] = test system: p38d MAPK
Protocol: as §1, §2, §3, §4

[37] = test system: ULK2
Protocol: as §1, §2, §3, §4

[38] = test system: PDGFRA
Protocol: as §1, §2, §3, §4

[39] = test system: CK1γ2
Protocol: as §1, §2, §3, §4

[40] = test system: TLK1
Protocol: as §1, §2, §3, §4

[41] = test system: S6K1
Protocol: as §1, §2, §3, §4

[42] = test system: HIPK3
Protocol: as §1, §2, §3, §4

[43] = test system: MST4
Protocol: as §1, §2, §3, §4

[44] = test system: MKK6
Protocol: as §1, §2, §3, §4

## Cc1cc(C(C#N)c2ccc(Cl)cc2)c(Cl)cc1NC(=O)c1cc(Cl)ccc1O (stereo not shown) [ZT-1a, 5-chloro-N-(5-chloro-4-((4-chlorophenyl)(cyano)methyl)-2-methylphenyl)-2-hydroxybenzamide]
[1]; 1 µM
  % residual kinase activity: 104±0%
[1]; 10 µM
  % residual kinase activity: 108±1%
[2]; 1 µM
  % residual kinase activity: 134±5%
[2]; 10 µM
  % residual kinase activity: 88±2%
[3]; 1 µM
  % residual kinase activity: 100±8%
[3]; 10 µM
  % residual kinase activity: 151±33%
[4]; 1 µM
  % residual kinase activity: 119±5%
[4]; 10 µM
  % residual kinase activity: 102±2%
[5]; 1 µM
  % residual kinase activity: 101±32%
[5]; 10 µM
  % residual kinase activity: 98±34%
[6]; 1 µM
  % residual kinase activity: 128±2%
[6]; 10 µM
  % residual kinase activity: 95±7%
[7]; 1 µM
  % residual kinase activity: 111±11%
[7]; 10 µM
  % residual kinase activity: 109±8%
[8]; 1 µM
  % residual kinase activity: 104±13%
[8]; 10 µM
  % residual kinase activity: 56±2%
[9]; 1 µM
  % residual kinase activity: 111±15%
[9]; 10 µM
  % residual kinase activity: 97±10%
[10]; 1 µM
  % residual kinase activity: 78±19%
[10]; 10 µM
  % residual kinase activity: 87±2%
[11]; 1 µM
  % residual kinase activity: 114±6%
[11]; 10 µM
  % residual kinase activity: 112±14%
[12]; 1 µM
  % residual kinase activity: 98±13%
[12]; 10 µM
  % residual kinase activity: 90±4%
[13]; 1 µM
  % residual kinase activity: 107±5%
[13]; 10 µM
  % residual kinase activity: 108±6%
[14]; 1 µM
  % residual kinase activity: 73±14%
[14]; 10 µM
  % residual kinase activity: 58±5%
[15]; 1 µM
  % residual kinase activity: 125±17%
[15]; 10 µM
  % residual kinase activity: 122±35%
[16]; 1 µM
  % residual kinase activity: 93±6%
[16]; 10 µM
  % residual kinase activity: 101±15%
[17]; 1 µM
  % residual kinase activity: 101±13%
[17]; 10 µM
  % residual kinase activity: 59±4%
[18]; 1 µM
  % residual kinase activity: 93±5%
[18]; 10 µM
  % residual kinase activity: 93±3%
[19]; 1 µM
  % residual kinase activity: 63±9%
[19]; 10 µM
  % residual kinase activity: 77±5%
[20]; 1 µM
  % residual kinase activity: 127±0%
[20]; 10 µM
  % residual kinase activity: 127±11%
[21]; 1 µM
  % residual kinase activity: 126±2%
[21]; 10 µM
  % residual kinase activity: 81±27%
[22]; 1 µM
  % residual kinase activity: 91±13%
[22]; 10 µM
  % residual kinase activity: 13±7%
[23]; 1 µM
  % residual kinase activity: 113±10%
[23]; 10 µM
  % residual kinase activity: 88±28%
[24]; 1 µM
  % residual kinase activity: 107±6%
[24]; 10 µM
  % residual kinase activity: 108±1%
[25]; 1 µM
  % residual kinase activity: 87±13%
[25]; 10 µM
  % residual kinase activity: 59±5%
[26]; 1 µM
  % residual kinase activity: 93±26%
[26]; 10 µM
  % residual kinase activity: 93±4%
[27]; 1 µM
  % residual kinase activity: 125±6%
[27]; 10 µM
  % residual kinase activity: 123±8%
[28]; 1 µM
  % residual kinase activity: 96±26%
[28]; 10 µM
  % residual kinase activity: 72±8%
[29]; 1 µM
  % residual kinase activity: 104±1%
[29]; 10 µM
  % residual kinase activity: 91±4%
[30]; 1 µM
  % residual kinase activity: 145±2%
[30]; 10 µM
  % residual kinase activity: 123±3%
[31]; 1 µM
  % residual kinase activity: 110±6%
[31]; 10 µM
  % residual kinase activity: 105±2%
[32]; 1 µM
  % residual kinase activity: 112±4%
[32]; 10 µM
  % residual kinase activity: 97±3%
[33]; 1 µM
  % residual kinase activity: 116±5%
[33]; 10 µM
  % residual kinase activity: 101±3%
[34]; 1 µM
  % residual kinase activity: 115±10%
[34]; 10 µM
  % residual kinase activity: 102±9%
[35]; 1 µM
  % residual kinase activity: 114±2%
[35]; 10 µM
  % residual kinase activity: 100±3%
[36]; 1 µM
  % residual kinase activity: 95±1%
[36]; 10 µM
  % residual kinase activity: 112±2%
[37]; 1 µM
  % residual kinase activity: 110±11%
[37]; 10 µM
  % residual kinase activity: 49±9%
[38]; 1 µM
  % residual kinase activity: 84±11%
[38]; 10 µM
  % residual kinase activity: 80±7%
[39]; 1 µM
  % residual kinase activity: 112±12%
[39]; 10 µM
  % residual kinase activity: 124±23%
[40]; 1 µM
  % residual kinase activity: 130±13%
[40]; 10 µM
  % residual kinase activity: 124±4%
[41]; 1 µM
  % residual kinase activity: 119±10%
[41]; 10 µM
  % residual kinase activity: 81±2%
[42]; 1 µM
  % residual kinase activity: 84±3%
[42]; 10 µM
  % residual kinase activity: 76±2%
[43]; 1 µM
  % residual kinase activity: 63±10%
[43]; 10 µM
  % residual kinase activity: 63±0%
[44]; 1 µM
  % residual kinase activity: 102±12%
[44]; 10 µM
  % residual kinase activity: 82±16%
